Results on 59 sequences are retold here after the supplement of paper PMC11208160.
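Note: IS621 recombinase and bridge RNA in Escherichia coli cells.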

A short description of the data set: recombinant barcode read abundance after kanamycin selection (control-corrected) (log10(CPM+1)); higher = more efficient recombination; sequences stand for … in AGTGCAGAGAAAATCGGCCAGTTTTCTCTGCCTGCAGTCCGCATGCCGT…AGATTTATGCAGCGGACTGCCTTTCTCCCAAAGTGATAAACCGGACAGTATCATGGACCGGTTTTCCCGGTAATCCGTATTTGCAAGGTTGGTTTCACT; site = the 11-nt target. In a few lines: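 A promoter, a target, a barcode and the first 104 bridge RNA bases under J23119 made up each oligo. Oligos were Gibson-cloned into a vector bearing the other 73 bp and a T7-inducible recombinase, then co-electroporated into E. coli with a donor plasmid and plated in duplicate on chloramphenicol/ampicillin LB agar (control) or chloramphenicol/ampicillin/kanamycin with 0.1 mM IPTG. Recombination efficiency is the averaged, control-corrected counts per million of recombinant-junction barcodes. Reported values are log10(CPM+1).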
Turning to “CTCTAGTCTTGGGTTCTAACCTGTTGCTT (site CTCTAGTCTAT)”, the “recombinant barcode read abundance (log10)” value was found to be 0.755. The same measure for “CTCTCCTCTTGGGTTCTAACCTGTTGCCT (site CTCTCCGCTAG)”: 0.502; for “CTCTCCTCTTGGGTTCTAACCTGTTGCCT (site CTCTCCTCTAG)”: 1.28. Regarding “CTCTCGTCTTGGGTTCTAACCTGTTGCTT (site CTCTCGTCTAA)”, the “recombinant barcode read abundance (log10)” value is 0.2. For “CTCTCGTCTTGGGTTCTAACCTGTTGCTT (site CTCTCGTCTAC)”, the “recombinant barcode read abundance (log10)” value amounted to 0.517. For “CTCTCGTCTTGGGTTCTAACCTGTTGCTT (site CTCTCGTCTAG)” the value was 0.107; for “CTCTCGTCTTGGGTTCTAACCTGTTGCTT (site CTCTCGTCTAT)”, 0.091. For “CTCTGTCCTTGGGTTCTAACCTGTTGCCA (site CTCTGTCCTTA)” the value was 0.0433. For “CTCTGTCCTTGGGTTCTAACCTGTTGCCA (site CTCTGTCCTTG)” the value was 0.545; for “CTCTTAACTTGGGTTCTAACCTGTTGCGG (site AAGCATGCTTA)”, 0.113. For “CTCTTAACTTGGGTTCTAACCTGTTGCGG (site CTCTTAACTCC)”, the “recombinant barcode read abundance (log10)” value was 0.536. The same measure for “CTCTTAGCTTGGGTTCTAACCTGTTGCAA (site CTCTTAACTTA)”: 0.0112. The same measure for “CTCTTAGCTTGGGTTCTAACCTGTTGCAA (site CTCTTAGCTTT)”: 0.0457. The same measure for “CTCTTCACTTGGGTTCTAACCTGTTGCCG (site CTCTTCACTCG)”: 0.998. Turning to “CTCTTCACTTGGGTTCTAACCTGTTGCCG (site CTCTTCGCTAG)”, the “recombinant barcode read abundance (log10)” value turned out to be 0.0289. For “CTGAGTTCTTGGGTTCTAACCTGTTGCCA (site CTGAGTCCTTG)” the value was 0.269; for “CTGAGTTCTTGGGTTCTAACCTGTTGCCA (site CTGAGTTCTTG)”, 0.0274.

Take “CTGATCCCTTGGGTTCTAACCTGTTGCGG (site CTGATCCCTCC)”: the “recombinant barcode read abundance (log10)” value amounted to 1.05. The same measure for “CTGATCCCTTGGGTTCTAACCTGTTGCGG (site CTGCTCCCTCC)”: 0; for “CTGATCCCTTGGGTTCTAACCTGTTGCGG (site CTGGTCCCTCC)”: 0.136; for “CTGATCCCTTGGGTTCTAACCTGTTGCGG (site CTGTTCCCTCC)”: 0.0812. Take “CTGATTACTTGGGTTCTAACCTGTTGCCT (site CTGATAACTAG)”: the “recombinant barcode read abundance (log10)” value worked out at 0.0337. “CTGATTACTTGGGTTCTAACCTGTTGCCT (site CTGATCACTAG)”: the “recombinant barcode read abundance (log10)” value is 0.0584.

With “CTGATTACTTGGGTTCTAACCTGTTGCCT (site CTGATGACTAG)”, the “recombinant barcode read abundance (log10)” value is 0.0346. Turning to “CTGATTACTTGGGTTCTAACCTGTTGCCT (site CTGATTACTAG)”, the “recombinant barcode read abundance (log10)” value was 0.21. The same measure for “CTGCAAGCTTGGGTTCTAACCTGTTGCCT (site CTACAAGCTAG)”: 1.29; for “CTGCAAGCTTGGGTTCTAACCTGTTGCCT (site CTCCAAGCTAG)”: 0.218; for “CTGCAAGCTTGGGTTCTAACCTGTTGCCT (site CTGCAAGCTAG)”: 0.995. For “CTGCAAGCTTGGGTTCTAACCTGTTGCCT (site CTTCAAGCTAG)” the value was 0.854; for “CTGGACCCTTGGGTTCTAACCTGTTGCCG (site CTGGACCCTCG)”, 1.91. For “CTGGACCCTTGGGTTCTAACCTGTTGCCG (site GATTCGACTAC)” the value was 0.0386; for “CTGGCAGCTTGGGTTCTAACCTGTTGCCT (site ACAAACCCTTA)”, 0.241; for “CTGGCAGCTTGGGTTCTAACCTGTTGCCT (site CTGGCAGCTAG)”, 0.445. Take “CTGGCGCCTTGGGTTCTAACCTGTTGCAT (site CTGGCGCCTAT)”: the “recombinant barcode read abundance (log10)” value was 0.908. Regarding “CTGGCGCCTTGGGTTCTAACCTGTTGCAT (site TCTCGAGCTTC)”, the “recombinant barcode read abundance (log10)” value was 0.0909. Take “CTGGCTCCTTGGGTTCTAACCTGTTGCTT (site CTGGCTCCTAA)”: the “recombinant barcode read abundance (log10)” value came to 0.227. The same measure for “CTGGCTCCTTGGGTTCTAACCTGTTGCTT (site CTGGTTCCTAG)”: 0.0218; for “CTGGGGTCTTGGGTTCTAACCTGTTGCTT (site CTGGGGTCTAA)”: 2.43; for “CTGGGGTCTTGGGTTCTAACCTGTTGCTT (site GACTAAGCTCC)”: 0.105.

Take “CTGGTGCCTTGGGTTCTAACCTGTTGCCT (site CAGGTGCCTAG)”: the “recombinant barcode read abundance (log10)” value is 0.808. The same measure for “CTGGTGCCTTGGGTTCTAACCTGTTGCCT (site CCGGTGCCTAG)”: 0.116; for “CTGGTGCCTTGGGTTCTAACCTGTTGCCT (site CGGGTGCCTAG)”: 0.248; for “CTGGTGCCTTGGGTTCTAACCTGTTGCCT (site CTGGTGCCTAG)”: 1.46.

Turning to “CTGTAGCCTTGGGTTCTAACCTGTTGCTG (site CTGTAGCCTCA)”, the “recombinant barcode read abundance (log10)” value is 0.578. For “CTGTAGCCTTGGGTTCTAACCTGTTGCTG (site CTGTAGGCTTA)” the value was 0.0376. The same measure for “CTGTAGGCTTGGGTTCTAACCTGTTGCTA (site CTGTAGCCTCA)”: 0.136; for “CTGTAGGCTTGGGTTCTAACCTGTTGCTA (site CTGTAGGCTTA)”: 0.716; for “CTGTCGACTTGGGTTCTAACCTGTTGCCT (site CTATCCACTAG)”: 0.0154. The same measure for “CTGTCGACTTGGGTTCTAACCTGTTGCCT (site CTGTCGACTAG)”: 0.286; for “CTGTCTACTTGGGTTCTAACCTGTTGCCT (site CAGTCTACTAG)”: 0.0294. On to “CTGTCTACTTGGGTTCTAACCTGTTGCCT (site CCGTCTACTAG)”, for which the “recombinant barcode read abundance (log10)” value amounted to 0.197. For “CTGTCTACTTGGGTTCTAACCTGTTGCCT (site CGGTCTACTAG)” the value was 0.134. For the sequence “CTGTCTACTTGGGTTCTAACCTGTTGCCT (site CTGTCTACTAG)”, the “recombinant barcode read abundance (log10)” value amounted to 0.0179. The same measure for “CTTACTACTTGGGTTCTAACCTGTTGCCT (site ATCACTACTAG)”: 0.105; for “CTTACTACTTGGGTTCTAACCTGTTGCCT (site CTTACTACTAG)”: 0.126.

In the case of “CTTAGGACTTGGGTTCTAACCTGTTGCCT (site CTTAGGACTAG)”, the “recombinant barcode read abundance (log10)” value is 0.205.

For the sequence “CTTAGGACTTGGGTTCTAACCTGTTGCCT (site CTTAGGACTCG)”, the “recombinant barcode read abundance (log10)” value came out at 0.0406.

On to “CTTAGGACTTGGGTTCTAACCTGTTGCCT (site CTTAGGACTGG)”, for which the “recombinant barcode read abundance (log10)” value came out at 0.136. The same measure for “CTTAGGACTTGGGTTCTAACCTGTTGCCT (site CTTAGGACTTG)”: 0.0473.
